# What was measured:
# [1] = molecular target: Transient receptor potential cation channel subfamily V member 1 (Homo sapiens, UniProt Q8NER1); experiment: Agonist activity at ionomycin-stimulated TRPV1 (unknown origin) activation
# [2] = molecular target: T1, Transient receptor potential cation channel subfamily V member 2 (Homo sapiens, UniProt Q9Y5S1); experiment: Agonist activity at ionomycin-stimulated TRPV2 (unknown origin) activation
# T1 sequence (Q9Y5S1 whole entry): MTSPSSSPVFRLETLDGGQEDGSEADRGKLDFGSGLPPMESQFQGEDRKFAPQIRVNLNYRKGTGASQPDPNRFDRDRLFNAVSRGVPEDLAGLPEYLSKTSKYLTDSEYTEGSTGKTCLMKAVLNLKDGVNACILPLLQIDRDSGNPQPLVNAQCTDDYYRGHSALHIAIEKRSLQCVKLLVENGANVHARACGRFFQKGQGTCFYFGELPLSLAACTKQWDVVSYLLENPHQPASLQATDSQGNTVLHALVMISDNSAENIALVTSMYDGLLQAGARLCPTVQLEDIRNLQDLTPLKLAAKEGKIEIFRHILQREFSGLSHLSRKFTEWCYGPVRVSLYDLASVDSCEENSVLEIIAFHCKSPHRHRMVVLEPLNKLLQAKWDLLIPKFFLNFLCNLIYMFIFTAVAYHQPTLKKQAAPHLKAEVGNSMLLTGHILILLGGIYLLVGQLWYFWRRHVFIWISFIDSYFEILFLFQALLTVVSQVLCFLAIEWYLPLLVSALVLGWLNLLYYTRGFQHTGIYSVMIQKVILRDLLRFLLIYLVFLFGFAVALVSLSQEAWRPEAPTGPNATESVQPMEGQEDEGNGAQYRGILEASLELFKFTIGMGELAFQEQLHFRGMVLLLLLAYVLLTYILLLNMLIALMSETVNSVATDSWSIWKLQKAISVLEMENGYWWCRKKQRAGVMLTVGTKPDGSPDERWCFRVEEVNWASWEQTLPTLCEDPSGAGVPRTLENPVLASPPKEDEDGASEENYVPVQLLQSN
# [3] = molecular target: T2, Transient receptor potential cation channel subfamily V member 3 (Homo sapiens, UniProt Q8NET8); experiment: Agonist activity at ionomycin-stimulated TRPV3 (unknown origin) activation
# T2 sequence (Q8NET8 whole entry): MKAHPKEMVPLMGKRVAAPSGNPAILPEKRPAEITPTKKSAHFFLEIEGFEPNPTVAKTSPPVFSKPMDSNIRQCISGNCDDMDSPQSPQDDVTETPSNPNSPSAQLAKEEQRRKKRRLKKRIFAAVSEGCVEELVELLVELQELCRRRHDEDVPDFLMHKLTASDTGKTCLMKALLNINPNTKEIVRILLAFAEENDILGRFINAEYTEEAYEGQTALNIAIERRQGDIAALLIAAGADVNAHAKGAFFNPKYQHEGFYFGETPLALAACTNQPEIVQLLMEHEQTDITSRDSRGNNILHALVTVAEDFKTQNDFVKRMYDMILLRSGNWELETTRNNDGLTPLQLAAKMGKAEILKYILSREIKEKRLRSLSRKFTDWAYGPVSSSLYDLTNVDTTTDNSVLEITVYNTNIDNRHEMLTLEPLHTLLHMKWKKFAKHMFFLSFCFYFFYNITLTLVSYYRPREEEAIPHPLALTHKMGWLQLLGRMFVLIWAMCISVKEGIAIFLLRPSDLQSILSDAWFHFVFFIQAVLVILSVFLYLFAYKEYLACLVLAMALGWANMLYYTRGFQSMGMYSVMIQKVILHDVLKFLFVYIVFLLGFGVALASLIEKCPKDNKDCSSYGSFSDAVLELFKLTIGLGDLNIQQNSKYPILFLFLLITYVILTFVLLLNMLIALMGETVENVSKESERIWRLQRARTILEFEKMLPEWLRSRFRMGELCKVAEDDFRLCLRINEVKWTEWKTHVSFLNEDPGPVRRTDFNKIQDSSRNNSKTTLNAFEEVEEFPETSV
# [4] = molecular target: T3, Transient receptor potential cation channel subfamily V member 3 (Homo sapiens) (UniProt Q8NET8); experiment: Agonist activity at ionomycin-stimulated TRPV3 (unknown origin) activation assessed as efficacy relative to control
# T3 sequence (whole entry): T2 sequence (Q8NET8 whole entry)
# [5] = molecular target: T2, Transient receptor potential cation channel subfamily V member 3; experiment: Agonist activity at ionomycin-stimulated TRPV3 (unknown origin) channel desensitization in presence of carvacrol
# [6] = molecular target: T4, Transient receptor potential cation channel subfamily V member 4 (Homo sapiens, UniProt Q9HBA0); experiment: Agonist activity at ionomycin-stimulated TRPV4 (unknown origin) activation assessed as efficacy relative to control
# [7] = molecular target: T4, Transient receptor potential cation channel subfamily V member 4; experiment: Agonist activity at ionomycin-stimulated TRPV4 (unknown origin) channel desensitization in presence of 4alphaPDD
# [8] = molecular target: T5, Transient receptor potential cation channel subfamily A member 1 (Homo sapiens, UniProt O75762); experiment: Agonist activity at TRPA1 (unknown origin) activation
# [9] = molecular target: T5, Transient receptor potential cation channel subfamily A member 1; experiment: Agonist activity at TRPA1 (unknown origin) activation assessed as efficacy relative to control; settings: filed as agonist
# [10] = molecular target: T6, G-protein coupled receptor 55 (Homo sapiens, UniProt Q9Y2T6); experiment: Binding affinity to human GPR55 expressed in HEK293 cells assessed as LPI-stimulated ERK1/2 phosphorylation; format: cell-based
# [11] = molecular target: G-protein coupled receptor 6 (Homo sapiens, UniProt P46095); experiment: Binding affinity to human GPR6 expressed in HEK293 cells assessed as reduction in cAMP level by measuring efficacy incubated for 1 hr by HTRF assay relative to control; format: cell-based
# [12] = molecular target: T6, G-protein coupled receptor 55; experiment: Binding affinity to human GPR55 expressed in HEK293 cells assessed as LPI-stimulated ERK1/2 phosphorylation by measuring efficacy relative to control; format: cell-based
# [13] = molecular target: Cytochrome P450 1A1 (Homo sapiens, UniProt P04798); experiment: Inhibition of human recombinant CYP1A1 preincubated with NADPH for 20 mins and measured after 30 min by Lineweaver-burk plots analysis; format: ADME
# [14] = molecular target: T7, Cytochrome P450 2B6 (Homo sapiens, UniProt P20813); experiment: Mixed inhibition of recombinant CYP2B6 (unknown origin) using coumarin as substrate in presence of NADPH-generating system; format: ADME
# T7 sequence (P20813 whole entry): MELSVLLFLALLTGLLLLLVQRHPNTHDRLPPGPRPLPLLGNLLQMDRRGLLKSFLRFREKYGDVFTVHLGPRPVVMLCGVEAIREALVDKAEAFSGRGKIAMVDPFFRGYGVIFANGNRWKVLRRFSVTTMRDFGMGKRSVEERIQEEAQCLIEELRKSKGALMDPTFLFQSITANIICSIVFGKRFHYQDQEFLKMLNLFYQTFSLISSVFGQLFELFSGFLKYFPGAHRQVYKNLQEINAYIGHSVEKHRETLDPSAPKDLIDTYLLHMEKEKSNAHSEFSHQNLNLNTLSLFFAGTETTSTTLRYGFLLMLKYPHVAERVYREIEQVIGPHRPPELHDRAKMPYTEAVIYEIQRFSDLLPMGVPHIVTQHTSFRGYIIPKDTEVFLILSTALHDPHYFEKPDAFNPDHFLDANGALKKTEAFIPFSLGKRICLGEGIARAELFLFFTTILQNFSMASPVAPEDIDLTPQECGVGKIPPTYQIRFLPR
# [15] = molecular target: T8, Cytochrome P450 2C19 (Homo sapiens, UniProt P33261); experiment: Mixed inhibition of CYP2C19 (unknown origin); format: ADME
# [16] = molecular target: T8, Cytochrome P450 2C19; experiment: Mixed inhibition of CYP2C19 (unknown origin) by measuring inhibition constant; format: ADME
# T4 sequence (Q9HBA0 whole entry): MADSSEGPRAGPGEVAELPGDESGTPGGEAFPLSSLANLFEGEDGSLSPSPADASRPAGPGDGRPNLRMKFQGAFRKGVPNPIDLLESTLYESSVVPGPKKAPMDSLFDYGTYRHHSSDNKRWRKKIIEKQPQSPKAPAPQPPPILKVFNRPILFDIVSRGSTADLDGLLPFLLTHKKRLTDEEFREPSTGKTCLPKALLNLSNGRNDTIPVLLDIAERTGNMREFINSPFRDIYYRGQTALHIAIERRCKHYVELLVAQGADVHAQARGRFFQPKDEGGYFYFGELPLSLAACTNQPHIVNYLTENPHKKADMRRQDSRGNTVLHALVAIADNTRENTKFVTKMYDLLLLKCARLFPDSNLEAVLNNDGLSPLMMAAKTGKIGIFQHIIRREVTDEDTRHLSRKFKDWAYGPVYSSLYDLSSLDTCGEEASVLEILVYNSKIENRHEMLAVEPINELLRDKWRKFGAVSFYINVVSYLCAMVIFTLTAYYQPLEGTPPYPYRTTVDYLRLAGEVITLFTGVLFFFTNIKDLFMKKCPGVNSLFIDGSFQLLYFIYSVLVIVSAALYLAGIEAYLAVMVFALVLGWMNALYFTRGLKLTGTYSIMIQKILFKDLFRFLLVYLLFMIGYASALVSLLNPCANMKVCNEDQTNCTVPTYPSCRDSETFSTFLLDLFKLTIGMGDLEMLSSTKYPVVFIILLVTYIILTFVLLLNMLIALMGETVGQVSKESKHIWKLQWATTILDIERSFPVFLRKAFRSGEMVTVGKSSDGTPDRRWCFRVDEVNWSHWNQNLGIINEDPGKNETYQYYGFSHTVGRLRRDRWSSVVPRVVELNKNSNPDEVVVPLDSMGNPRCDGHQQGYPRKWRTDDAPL
# T6 sequence (Q9Y2T6 whole entry): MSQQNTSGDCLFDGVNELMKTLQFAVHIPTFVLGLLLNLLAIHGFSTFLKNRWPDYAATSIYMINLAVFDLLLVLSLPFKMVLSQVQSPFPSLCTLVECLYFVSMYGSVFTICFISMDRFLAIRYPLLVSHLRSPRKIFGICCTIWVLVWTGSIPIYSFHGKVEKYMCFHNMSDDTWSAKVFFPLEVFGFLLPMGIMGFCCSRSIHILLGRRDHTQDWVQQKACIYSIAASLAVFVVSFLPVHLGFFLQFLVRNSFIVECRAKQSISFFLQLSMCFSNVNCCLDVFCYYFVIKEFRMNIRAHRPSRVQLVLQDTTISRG
# T5 sequence (O75762 whole entry): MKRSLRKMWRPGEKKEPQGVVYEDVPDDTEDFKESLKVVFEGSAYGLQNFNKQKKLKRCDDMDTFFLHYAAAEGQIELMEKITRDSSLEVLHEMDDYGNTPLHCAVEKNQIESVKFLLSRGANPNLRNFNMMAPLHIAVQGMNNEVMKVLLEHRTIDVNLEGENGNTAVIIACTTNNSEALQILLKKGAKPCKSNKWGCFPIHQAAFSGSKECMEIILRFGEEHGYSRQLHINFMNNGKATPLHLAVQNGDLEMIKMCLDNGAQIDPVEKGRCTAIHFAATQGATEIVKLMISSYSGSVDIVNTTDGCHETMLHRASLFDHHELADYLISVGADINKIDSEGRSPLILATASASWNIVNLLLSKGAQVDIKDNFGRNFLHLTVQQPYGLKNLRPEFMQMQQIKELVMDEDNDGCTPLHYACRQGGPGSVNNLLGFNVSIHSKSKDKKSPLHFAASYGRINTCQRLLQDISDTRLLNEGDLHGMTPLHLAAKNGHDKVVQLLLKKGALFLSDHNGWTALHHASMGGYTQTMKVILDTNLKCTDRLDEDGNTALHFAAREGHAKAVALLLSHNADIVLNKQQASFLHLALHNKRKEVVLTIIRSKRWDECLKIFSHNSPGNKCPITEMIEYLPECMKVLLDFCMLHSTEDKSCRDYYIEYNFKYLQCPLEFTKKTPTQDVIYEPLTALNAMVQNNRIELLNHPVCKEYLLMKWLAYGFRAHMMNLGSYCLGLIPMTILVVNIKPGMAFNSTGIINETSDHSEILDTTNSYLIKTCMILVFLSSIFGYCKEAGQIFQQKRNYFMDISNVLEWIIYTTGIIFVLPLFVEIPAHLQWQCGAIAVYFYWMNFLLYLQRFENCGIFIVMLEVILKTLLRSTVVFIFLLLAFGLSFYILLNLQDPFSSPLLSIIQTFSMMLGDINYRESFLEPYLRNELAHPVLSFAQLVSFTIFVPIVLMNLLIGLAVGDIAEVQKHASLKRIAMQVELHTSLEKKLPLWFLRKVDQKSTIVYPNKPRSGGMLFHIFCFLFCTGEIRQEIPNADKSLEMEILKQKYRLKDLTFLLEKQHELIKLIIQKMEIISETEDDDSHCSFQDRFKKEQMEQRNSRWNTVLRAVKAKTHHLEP
# T8 sequence (P33261 whole entry): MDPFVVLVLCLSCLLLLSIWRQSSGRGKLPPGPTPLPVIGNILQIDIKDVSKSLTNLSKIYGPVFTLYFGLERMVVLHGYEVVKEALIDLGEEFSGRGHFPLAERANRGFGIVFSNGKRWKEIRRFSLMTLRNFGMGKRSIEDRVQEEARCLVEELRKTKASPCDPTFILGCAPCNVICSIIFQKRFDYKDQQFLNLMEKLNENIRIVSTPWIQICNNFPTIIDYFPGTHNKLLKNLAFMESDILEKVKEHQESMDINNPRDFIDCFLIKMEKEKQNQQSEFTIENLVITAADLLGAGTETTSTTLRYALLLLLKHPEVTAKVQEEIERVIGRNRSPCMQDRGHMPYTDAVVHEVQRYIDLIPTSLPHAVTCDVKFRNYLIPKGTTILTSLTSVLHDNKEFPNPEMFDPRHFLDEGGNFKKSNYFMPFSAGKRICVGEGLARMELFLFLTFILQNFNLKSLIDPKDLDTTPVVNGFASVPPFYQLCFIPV
# Cytochrome P450 1A1, sequence (P04798 whole entry): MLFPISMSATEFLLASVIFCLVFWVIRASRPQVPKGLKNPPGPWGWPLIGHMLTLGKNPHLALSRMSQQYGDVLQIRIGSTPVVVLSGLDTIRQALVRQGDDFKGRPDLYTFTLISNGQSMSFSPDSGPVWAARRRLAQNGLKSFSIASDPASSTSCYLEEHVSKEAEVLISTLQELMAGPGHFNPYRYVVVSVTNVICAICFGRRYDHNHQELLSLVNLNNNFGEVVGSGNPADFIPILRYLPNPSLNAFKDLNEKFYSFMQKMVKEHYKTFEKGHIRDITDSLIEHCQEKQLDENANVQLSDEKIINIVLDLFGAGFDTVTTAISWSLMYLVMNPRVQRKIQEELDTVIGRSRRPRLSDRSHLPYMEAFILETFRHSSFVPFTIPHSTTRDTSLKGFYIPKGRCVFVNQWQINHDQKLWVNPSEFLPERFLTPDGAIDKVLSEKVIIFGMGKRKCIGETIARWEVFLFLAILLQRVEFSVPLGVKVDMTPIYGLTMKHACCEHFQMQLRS
# Transient receptor potential cation channel subfamily V member 1, sequence (Q8NER1 whole entry): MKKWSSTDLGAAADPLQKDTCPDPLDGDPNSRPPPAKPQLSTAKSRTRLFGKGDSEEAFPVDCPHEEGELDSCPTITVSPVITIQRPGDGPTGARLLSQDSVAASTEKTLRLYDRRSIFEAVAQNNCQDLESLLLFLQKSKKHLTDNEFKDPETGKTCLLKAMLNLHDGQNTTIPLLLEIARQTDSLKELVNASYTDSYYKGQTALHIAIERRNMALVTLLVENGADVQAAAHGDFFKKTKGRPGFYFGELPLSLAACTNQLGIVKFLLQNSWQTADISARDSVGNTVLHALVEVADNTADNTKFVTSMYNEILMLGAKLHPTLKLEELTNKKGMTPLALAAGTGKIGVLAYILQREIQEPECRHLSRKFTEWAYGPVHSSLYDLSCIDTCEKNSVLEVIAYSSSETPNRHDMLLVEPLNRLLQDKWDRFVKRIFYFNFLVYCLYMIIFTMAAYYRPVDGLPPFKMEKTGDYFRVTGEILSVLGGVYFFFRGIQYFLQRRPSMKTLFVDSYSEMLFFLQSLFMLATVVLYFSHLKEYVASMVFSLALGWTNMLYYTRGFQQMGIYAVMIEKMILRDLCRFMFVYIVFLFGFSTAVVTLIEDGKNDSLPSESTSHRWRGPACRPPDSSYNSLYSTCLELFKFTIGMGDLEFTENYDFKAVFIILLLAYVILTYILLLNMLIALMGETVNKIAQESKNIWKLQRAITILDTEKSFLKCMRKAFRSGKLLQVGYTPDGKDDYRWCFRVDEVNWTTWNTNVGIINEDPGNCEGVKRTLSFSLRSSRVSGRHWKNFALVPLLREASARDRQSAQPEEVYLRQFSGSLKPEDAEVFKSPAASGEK
# G-protein coupled receptor 6, sequence (P46095 whole entry): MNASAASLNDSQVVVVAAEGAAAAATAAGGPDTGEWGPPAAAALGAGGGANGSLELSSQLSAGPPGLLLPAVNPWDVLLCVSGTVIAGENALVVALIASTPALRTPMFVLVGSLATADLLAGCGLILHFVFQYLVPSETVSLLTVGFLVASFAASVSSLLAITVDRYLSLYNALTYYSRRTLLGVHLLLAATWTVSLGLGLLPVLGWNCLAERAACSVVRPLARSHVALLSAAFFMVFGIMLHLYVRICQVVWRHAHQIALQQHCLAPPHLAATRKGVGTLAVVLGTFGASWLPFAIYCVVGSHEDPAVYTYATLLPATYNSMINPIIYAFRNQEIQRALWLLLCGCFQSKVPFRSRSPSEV
smiles,measurement,setting,value
C=C(C)[C@@H]1CCC(C)=C[C@H]1c1c(O)cc(CCC)cc1O [CANNABIDIVARIN],EC50,[1],3.6 µM
same,EC50,[2],7.3 µM
same,EC50,[3],1700 nM
same,Efficacy,[4],16%
same,IC50,[5],25 µM
same,Efficacy,[6],30%
same,IC50,[7],2900 nM
same,EC50,[8],420 nM
same,Efficacy,[9],105%
same,EC50,[10],400 nM
same,Efficacy,[11],90%
same,Efficacy,[12],49%
same,Ki,[13],1600 nM
same,IC50,[14],7.4 µM
same,IC50,[15],3.7 µM
same,Ki,[16],1400 nM

# From ChEMBL document CHEMBL5096151, “Phytocannabinoid Pharmacology: Medicinal Properties of Cannabis sativa Constituents Aside from the "Big Two"” (J Nat Prod, 2021)
